In US7915295B2, “Non-nucleotide reverse transcriptase inhibitors” (priority 2004, dated 2011):

Tested on: wild type HIV (HIVIIIB)
Assay: not given
Conditions: read-out: ED50 (the source's name); cited from earlier work

Compound	EC50
O=C(Nc1ccc(Oc2ccccc2)cn1)N[C@@H]1[C@@H]2COc3c(F)ccc(F)c3[C@@H]21 (relative stereo) [Prior art, cis-1-(4,7-difluoro-1,1a,2,7b-tetrahydro-cyclopropa[c]chromen-1-yl)-3-(5-phenoxy-pyridin-2-yl)-urea, reference compound]	7 nM

Target: T1, HIV-1 reverse transcriptase L100I+K103N mutant (Human immunodeficiency virus type 1 group M subtype B, UniProt P03366, K702N/L699I)
T1 construct: made in house; host or cells: E. coli BL21 (DE3)
Assay: HIV-1 reverse transcriptase SPA (scintillation proximity) assay with mutant RT
Format: biochemical
Conditions: K103N double escape mutant
Experimental: Convenient reverse transcriptase assays use reverse transcriptase bearing key drug escape mutations prepared broadly as described in Unge et al Eur. J. Biochem. 269, 1670-1677 (2002).
For example a K103N mutant is prepared using this methodology and the primers
The L100I/K103 N mutant is prepared by mutation of L100 in the K103N enzyme:
Mutations are done in the HIVRT DH10 clone cDNA cloned into the pET11d expression vector. The mutations are generated by amplification of the mutated DNA with the help of the enzyme Pfu. Cloning was then performed in E. coli TOP10 cells and expression of mutated enzyme was performed in E. coli BL21 (DE3) cells after induction with IPTG.
The HIV-1 reverse transcriptase assay utilized a SPA (scintillation proximity assay) system relying on fluomicrospheres coated with the receptor molecule streptavidine (Flashplates, PerkinElmer Life Science) which is capable of binding radiolabelled ligands in the reaction solution. In the assay, a biotinylated primer (5′-GTC ATA GCT GTT TCC TG-3′) is pre-annealed with a DNA heterogeneous template (synthesized by GENSE) giving a sequence of 5′-CG UCUGGCAUUGCGAGCGGAUAA CM UUU CAC ACA GGA MC AGC UAU GAC-3′ in an RNase free environment. HIV-1 reverse transcriptase (such as L100I+K103N) catalyzed RNA-dependent DNA activity was measured in the presence of 50 mM Tris-HCl pH=8.0, 80 mM KCl, 10 mM MgCl2, 10 mM Dithiothreitol, 5 mg/ml BSA and 0.05% Nonidet P40 where the incorporation of tritium-labeled dGTP (Amersham, 35 Ci/mmol) and 11 uM of dNTP (dATP, dCTP and dTTP) was monitored at room temperature. The dGTP concentration was used at a Km value of 0.25 uM, 10 nM of RNA template was used and mutant RT (such as L100I+K103N) was used at 180 ng/ml in 100 ul reaction volume for 120 min reaction.
Compounds of the invention were assayed for HIV activity against the problematic L100I, K103N mutant in an invitro assay as outlined below. For reference, the closest prior art compound, cis-1-(4,7-difluoro-1,1a,2,7b-tetrahydro-cyclopropa[c]chromen-1-yl)-3-(5-phenoxy-pyridin-2-yl)-urea, example 20 of WO 02/070516 as depicted above, was assayed in the same system.

Compound	IC50
CC(=O)Nc1ccc(Oc2ccc(NC(=O)N[C@@H]3[C@H]4COc5c(F)ccc(F)c5[C@H]43)nc2)cc1 [Example 13, N-[4-({6-[({[(1S,1aS,7bS)-4,7-difluoro-1,1a,2,7b-tetrahydrocyclopropa[c]chromen-1-yl]amino}carbonyl)amino]-3-pyridinyl}oxy)phenyl]acetamide]	40 nM
CNC(=O)c1ccc(Oc2ccc(NC(=O)N[C@@H]3[C@@H]4COc5c(F)ccc(F)c5[C@@H]43)nc2)cn1 [Example 8, 5-({6-[({[(1S,1aR,7bR)-4,7-difluoro-1,1a,2,7b-tetrahydrocyclopropa[c]chromen-1-yl]amino}carbonyl)amino]-3-pyridinyl}oxy)-N-methyl-2-pyridinecarboxamide]	70 nM
CS(=O)(=O)c1ccc(Oc2ccc(NC(=O)N[C@@H]3[C@@H]4COc5c(F)ccc(F)c5[C@@H]43)nc2)cc1 [Example 5, N-[(1S,1aR,7bR)-4,7-difluoro-1,1a,2,7b-tetrahydrocyclopropa[c]chromen-1-yl]-N′-[5-(4-(methylsulfon)phenoxy)-2-pyridinyl]urea]	40 nM
CS(=O)(=O)Nc1ccc(Oc2ccc(NC(=O)N[C@@H]3[C@@H]4COc5c(F)ccc(F)c5[C@@H]43)nc2)cc1 [Example 3, N-[(1S,1aR,7bR)-4,7-difluoro-1,1a,2,7b-tetrahydrocyclopropa[c]chromen-1-yl]-N′-[5-(4-(N-methylsulfonamido)phenoxy)-2-pyridinyl]urea]	60 nM
NS(=O)(=O)c1ccc(Oc2ccc(NC(=O)N[C@@H]3[C@@H]4COc5c(F)ccc(F)c5[C@@H]43)nc2)cc1 [Example 1, N-[(1S,1aR,7bR)-4,7-difluoro-1,1a,2,7b-tetrahydrocyclopropa[c]chromen-1-yl]-N′-[5-(4-(sulfonamido)phenoxy)-2-pyridinyl]urea]	29 nM
O=C(Nc1ccc(Oc2ccc(-n3cncn3)cc2)cn1)N[C@@H]1[C@@H]2COc3c(F)ccc(F)c3[C@@H]21 [Example 14, N-[(1S,1aR,7bR)-4,7-difluoro-1,1a,2,7b-tetrahydrocyclopropa[c]chromen-1-yl]-N′-{5-[4-(1H-1,2,4-triazol-1-yl)phenoxy]pyridin-2-yl}urea]	60 nM
CNC(=O)c1ccc(Oc2ccc(NC(=O)N[C@@H]3[C@@H]4COc5c(F)ccc(F)c5[C@@H]43)nc2)cc1 [Example 2, N-[(1S,1 aR,7bR)-4,7-difluoro-1,1a,2,7b-tetrahydrocyclopropa[c]chromen-1-yl]-N′-[5-(4-(N-methylcarboxyamido)phenoxy)-2-pyridinyl]urea]	26 nM
Nc1ccc(Oc2ccc(NC(=O)N[C@@H]3[C@@H]4COc5c(F)ccc(F)c5[C@@H]43)nc2)cc1 [Example 4, N-[(1S,1aR,7bR)-4,7-difluoro-1,1a,2,7b-tetrahydrocyclopropa[c]chromen-1-yl]-N′-[5-(4-aminophenoxy)-2-pyridinyl]urea]	70 nM
O=C(Nc1ccc(Oc2ccc(C(=O)NC3CC3)cc2)cn1)N[C@@H]1[C@H]2COc3c(F)ccc(F)c3[C@H]21 [Example 12, 4-({6-[({[(1S,1aS,7bS)-4,7-difluoro-1,1a,2,7b-tetrahydrocyclopropa[c]chromen-1-yl]amino}carbonyl)amino]-3-pyridinyl}oxy)-N-cyclopropylbenzamide]	27 nM
NNC(=O)c1ccc(Oc2ccc(NC(=O)N[C@@H]3[C@H]4COc5c(F)ccc(F)c5[C@H]43)nc2)cc1 [Example 11, N-[(1S,1aS,7bS)-4,7-difluoro-1,1a,2,7b-tetrahydrocyclopropa[c]chromen-1-yl]-N′-{5-[4-(hydrazinocarbonyl)phenoxy]-2-pyridinyl}urea]	10 nM
NC(=O)c1ccc(Oc2ccc(NC(=O)N[C@@H]3[C@@H]4COc5c(F)ccc(F)c5[C@@H]43)nc2)cn1 [Example 10, 5-({6-[({[(1S,1aR,7bR)-4,7-difluoro-1,1a,2,7b-tetrahydrocyclopropa[c]chromen-1-yl]amino}carbonyl)amino]-3-pyridinyl}oxy)-2-pyridinecarboxamide]	80 nM
NC(=O)c1ccc(Oc2ccc(NC(=O)N[C@@H]3[C@@H]4COc5c(F)ccc(F)c5[C@@H]43)nc2)cc1 [Example 9, 4-({6-[({[(1S,1aR,7bR)-4,7-difluoro-1,1a,2,7b-tetrahydrocyclopropa[c]chromen-1-yl]amino}carbonyl)amino]-3-pyridinyl}oxy)benzamide]	28 nM
O=C(Nc1ccc(Oc2ccccc2)cn1)N[C@@H]1[C@@H]2COc3c(F)ccc(F)c3[C@@H]21 (relative stereo) [Prior art, cis-1-(4,7-difluoro-1,1a,2,7b-tetrahydro-cyclopropa[c]chromen-1-yl)-3-(5-phenoxy-pyridin-2-yl)-urea, reference compound]	600 nM
